{"source": "paper PMC6560211", "about": "“ApoAI-derived peptide increases glucose tolerance and prevents formation of atherosclerosis in mice” (Diabetologia, 2019)", "experiment": "Peptide stability in physiologic buffer or blood plasma", "type": "in vitro ADME", "details": "after denaturation/refolding; phosphate buffer, human plasma (citrate, pooled from four donors) or mouse CD-1 plasma (heparin); over 2 h; LC-MS/MS", "method": "Peptide (lyophilised powder) produced by Red Glead (Lund, Sweden) was reconstituted in Milli-Q water and then either used directly or mixed in a 1:1 ratio with 6 mol/l guanidine HCl in 2× PBS to give a monodisperse solution, followed by desalting using a column equilibrated with PBS, pH 7.4, using ÄKTAxpress fast protein LC (GE Healthcare, Uppsala, Sweden). Peptide integrity was analysed using circular dichroism spectroscopy. Peptide solubility was assayed at Red Glead using HPLC. Peptide stability in physiologic buffer or blood plasma (human or mouse) over 2 h was assayed at the Science for Life Laboratory (Uppsala, Sweden). […]\nPeptide concentration was determined at 205 nm using a NanoDrop 2000c spectrophotometer (Thermo Scientific) and integrity was analysed by Tris-Tricine SDS-PAGE followed by coomassie staining or by circular dichroism spectroscopy (CD). […]\nThe primary goal of this study was to investigate the anti -diabetic and anti-atherosclerotic efficacy of a novel ApoA -I derived peptide. Using a range of in vitro models, we assessed the effects of the peptide on HDL formation, cholesterol efflux, insulin secretion, and non -insulin dependent glucose uptake. […] Peptide effects were measured relative to full length ApoA -I and vehicle controls. […]\nSupernatants were recovered and insulin secretion was analysed by ELISA (Mercodia). […]", "note": "No end group written: not given here."}
{"substance": "Ac-AEYHAKATEHLSTLSEKAKPALEDLRQGLLPVLESFKVSFLSALEEYTKKLNTQ [RG54]", "values": [{"measurement": "peptide integrity by peptide stability assays (buffer or plasma)", "result": "confirmed"}]}
